Assay results published in ChEMBL document CHEMBL6083231, “AANAT kinetics of CoASH-targeted electrophiles of tryptamine and related analogs” (Bioorg Med Chem Lett, 2024).

What was measured:
[1] = molecular target: T1, Serotonin N-acetyltransferase (Homo sapiens, UniProt Q16613); assay: Inhibition of AANAT (unknown origin)
[2] = molecular target: T1, Serotonin N-acetyltransferase; assay: Inhibition of human AANAT

T1 sequence (Q16613 whole entry): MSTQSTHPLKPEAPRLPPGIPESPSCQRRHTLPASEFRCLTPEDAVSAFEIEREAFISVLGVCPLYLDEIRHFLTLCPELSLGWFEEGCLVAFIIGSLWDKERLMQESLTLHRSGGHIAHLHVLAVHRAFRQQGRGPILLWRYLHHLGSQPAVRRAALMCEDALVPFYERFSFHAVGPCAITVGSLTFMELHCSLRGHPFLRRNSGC

Row | IC50 [1] | IC50 [2] | Structure (SMILES)
1 | 0.5 µM |  | O=C(CBr)NCCc1c[nH]c2ccccc12
2 | 5.2 µM |  | O=C(CCl)NCCc1c[nH]c2ccccc12
3 |  | 25 µM | C=CC(=O)NCCc1csc2ccc(OC)cc12
